Test [1] concerns the target T1, NAMPT (Homo sapiens, UniProt P43490). The test is described as follows: Time-Resolved Fluorescence Resonance Energy Transfer (TR-FRET) Binding Assay of NAMPT. The note with it: 6.8 nM NAMPT, 200 nM probe, equilibrated 3 hours, no substrates. The method in brief:
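IC50s come from four-parameter logistic fits of control-normalized Em520/Em495 TR-FRET ratios (Ex 337 nm) against compound concentration. Before reading, enzyme, probe, antibody and compound equilibrated for 3 h at room temperature.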

The target of test [2] is T1, NAMPT. The test is described as follows: TR-FRET Binding Assay of NAMPT with PRPP. As to conditions: 2 nM NAMPT, 2 nM probe, 200 µM PRPP and 2.5 mM ATP, equilibrated 16 hours. The method in brief: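 Substrates present: PRPP at 200 µM and ATP at 2.5 mM, final, alongside 2 nM enzyme, 2 nM tracer and 1 nM terbium anti-His donor in 2% DMSO. A 16-hour equilibration preceded the time-resolved FRET read, allowing compounds to be enzymatically modified.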

For a further test, the system named is PC3 cells. The test is described as follows: NAMPT Cell Proliferation Assay (Cell Titer Glo). Type of test: cell-based. The note with it: Homo sapiens, PC-3, 120 h, incubated 5 days, cell viability. The method in brief:
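Viability measured by Cell Titer Glo luminescence after 5-day exposure of attached PC3 cells to compound, dosed as 10-fold serial dilutions ([…]) in RPMI/10% FBS at 37 °C and 5% CO2. Percent inhibition fitted to sigmoidal dose-response curves for IC50.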

The structures appear in SMILES notation.

T1 sequence (P43490 whole entry): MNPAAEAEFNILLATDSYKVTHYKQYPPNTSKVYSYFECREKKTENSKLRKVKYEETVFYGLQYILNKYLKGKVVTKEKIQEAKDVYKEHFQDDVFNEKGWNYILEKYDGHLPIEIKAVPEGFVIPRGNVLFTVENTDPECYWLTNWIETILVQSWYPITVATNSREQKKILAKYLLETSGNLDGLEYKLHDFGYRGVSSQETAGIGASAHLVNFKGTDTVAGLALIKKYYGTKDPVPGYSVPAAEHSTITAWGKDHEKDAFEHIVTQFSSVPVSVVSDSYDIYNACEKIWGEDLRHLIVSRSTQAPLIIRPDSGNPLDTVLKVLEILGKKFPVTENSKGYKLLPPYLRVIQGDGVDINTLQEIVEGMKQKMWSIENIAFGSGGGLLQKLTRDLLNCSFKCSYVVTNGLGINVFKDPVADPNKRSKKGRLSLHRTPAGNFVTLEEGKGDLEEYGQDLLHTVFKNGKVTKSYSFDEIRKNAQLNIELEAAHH

Turning to `COCC(=O)N1CCC(c2ccc(NC(=O)N3CC(c4cccnc4)C3)cc2)C1` (stereo not drawn) [Example 292, N-{4-[1-(methoxyacetyl)pyrrolidin-3-yl]phenyl}-3-(pyridin-3-yl)azetidine-1-carboxamide], the values for the IC50 at NAMPT [1], on NAMPT [2] and with PC3 cells were 268 nM, 0.259 nM and 87.8 nM, respectively.
Taken in the same sequence, the figures for `O=C(CC1CCCCC1)N1CC(Oc2ccc(NC(=O)N3CC(c4cccnc4)C3)cc2)C1` [Example 138, N-(4-{[1-(cyclohexylacetyl)azetidin-3-yl]oxy}phenyl)-3-(pyridin-3-yl)azetidine-1-carboxamide] were 11.4 nM, 0.596 nM and 8.38 nM.
Taken in the same sequence, the figures for `O=C(CC(F)(F)F)N1CC=C(c2ccc(NC(=O)N3CC(c4cccnc4)C3)cc2)CC1` [Example 18, 3-(pyridin-3-yl)-N-{4-[1-(3,3,3-trifluoropropanoyl)-1,2,3,6-tetrahydropyridin-4-yl]phenyl}azetidine-1-carboxamide] were 36.7 nM, 0.294 nM and 65.8 nM.
The corresponding values for `CC[C@H](C)C(=O)N1CC=C(c2ccc(NC(=O)N3CC(c4cccnc4)C3)cc2)CC1` [Example 9, N-(4-{1-[(2S)-2-methylbutanoyl]-1,2,3,6-tetrahydropyridin-4-yl}phenyl)-3-(pyridin-3-yl)azetidine-1-carboxamide] are 16.3 nM, 0.346 nM and 6.82 nM.
As for `O=C(Nc1ccc(OC2CN(C(=O)c3ccsc3)C2)cc1)N1CC(c2cccnc2)C1` [Example 146, 3-(pyridin-3-yl)-N-(4-{[1-(thiophen-3-ylcarbonyl)azetidin-3-yl]oxy}phenyl)azetidine-1-carboxamide], the results for the concentration for half-maximal inhibition (IC50) on NAMPT [1], on NAMPT [2] and in the test with PC3 cells were 15.1 nM, 0.27 nM and 9.07 nM, respectively.
`CC(C)CC(=O)N1CCC(c2ccc(NC(=O)N3CC(c4cccnc4)C3)cc2)C1` (stereo not drawn) [Example 294, N-{4-[1-(3-methylbutanoyl)pyrrolidin-3-yl]phenyl}-3-(pyridin-3-yl)azetidine-1-carboxamide]: the half-maximal inhibitory concentration (IC50) was 44.3 nM on NAMPT [1], 0.2 nM on NAMPT [2] and 60.9 nM in the test on PC3 cells.
For the molecule `O=C(CC1C[C@@H]2CC[C@H]1C2)N1CC(Oc2ccc(NC(=O)N3CC(c4cccnc4)C3)cc2)C1` (stereo partly drawn) [Example 122, N-[4-({1-[(1S,4R)-bicyclo[2.2.1]hept-2-ylacetyl]azetidin-3-yl}oxy)phenyl]-3-(pyridin-3-yl)azetidine-1-carboxamide], the results for the IC50 at NAMPT [1], at NAMPT [2] and with PC3 cells were 16.6 nM, 0.588 nM and 8.81 nM, respectively.
The corresponding values for `CCCC(=O)N1CC(c2ccc(NC(=O)N3CC(c4cccnc4)C3)cc2)C1` [Example 111, N-[4-(1-butanoylazetidin-3-yl)phenyl]-3-(pyridin-3-yl)azetidine-1-carboxamide] are 53.9 nM, 0.292 nM and 29.2 nM.
The corresponding values for `CCC(C)(C)C(=O)N1CCC(c2ccc(NC(=O)N3CC(c4cccnc4)C3)cc2)C1` (stereo not drawn) [Example 290, N-{4-[1-(2,2-dimethylbutanoyl)pyrrolidin-3-yl]phenyl}-3-(pyridin-3-yl)azetidine-1-carboxamide] are 11.1 nM, 0.224 nM and 10.3 nM.
Regarding `CCCCC(=O)N1CC(c2ccc(NC(=O)N3CC(c4cccnc4)C3)cc2)C1` [Example 198, N-[4-(1-pentanoylazetidin-3-yl)phenyl]-3-(pyridin-3-yl)azetidine-1-carboxamide], the IC50 is 64.2 nM at NAMPT [1], 0.341 nM on NAMPT [2] and 47.6 nM in the test on PC3 cells.
For `O=C(Nc1ccc(C2CCN(C(=O)c3cccs3)C2)cc1)N1CC(c2cccnc2)C1` (stereo not drawn) [Example 284, 3-(pyridin-3-yl)-N-{4-[1-(thiophen-2-ylcarbonyl)pyrrolidin-3-yl]phenyl}azetidine-1-carboxamide], the results for the IC50 at NAMPT [1], at NAMPT [2] and in the test on PC3 cells were 18.3 nM, 0.204 nM and 22.3 nM, respectively.

The record behind these values is US9296723B2, “NAMPT inhibitors” (AbbVie Inc., priority 2012, dated 2016).
